Ends that are not written are not given here.
Experiments:
potassium channel = assay: voltage-clamp study of potassium channel blockade in dorsal root ganglion cells; format: cell-based; details: concentrations of up to 100 micromolar, chick embryo dorsal root ganglion cells
From the text: (§1) The mechanism of action of all synthetic peptides was verified by three independent essays: "in vivo" challenge by injection of albino mice (strain CD1) with different amounts of synthetic peptides; liberation of radioactive (tritiated) gamma-amino-butyric acid from mouse brain synaptosomes; and confirmation of the results with electrophysiological experiments, through voltage-clamp technique, in chick embryo dorsal root ganglion cells maintained in "in vitro" culture.

BALB/c mice = BALB/c mice immunized for two months, immunodiffusion against NTX 1-39 coupled to MSA, FIG. 3
From the text: A group of ten mice were immunized with each peptide and a second group of mice were immunized with each peptide coupled to mouse serum albumin as a carrier molecule.

albino mice (strain CD1) = assay: "in vivo" challenge / lethality tests of synthetic peptides by injection of mice; details: for lethality test outcome: mouse, in vivo
mouse brain synaptosomes = assay: release of tritiated GABA from mouse brain synaptosomes; format: cell-based; details: for effect on GABA (neurotransmitter) release: mouse brain synaptosomes preloaded with 3H-GABA, FIG. 2
From the text: as §1
In the experiments involving release of neurotransmitters, mouse brain synaptosomes were preloaded with radioactive gamma-amino-butyric acid (2, 3, 3H-GABA) and were placed in Millipore filters ([…]) in perfusion chambers, each one containing 0.2 to 0.3 mg. of synaptosomal protein. The fractions from the perfusate (0.5 ml. each) were collected by means of a peristaltic pump at one minute intervals. After 6 minutes, a solution containing synthetic polypeptides was added to the experimental chambers and the radioactivity release was counted in an apparatus for measuring radioisotopes. […] The liberation of GABA per minute is expressed as a percentage of the total radioactivity present in the synaptosomes at the beginning of the experiment.

[1] = system: mice challenged with Noxiustoxin; details: challenge with effective lethal dose of Noxiustoxin (150 g per mouse)
[2] = dose 200 g (so in the source), intraventricularly

Substance: Methionine-Asparagine-Glycine-Lysine-Cysteine-Lysine-Cysteine-Tyrosine-Asparagine-Asparagine [NTX 30-39]
- change in the potassium currents (potassium channel): no change
- immunogenicity (BALB/c mice): immunogenic

Substance: Noxiustoxin (TIINVKCTSPKQCSKPCKELYGSSAGAKCMNGKCKCYNN; UniProt P08815 1-39, looked up) [Native NTX]
- intoxication symptoms and outcome (albino mice (strain CD1); dose of 40 g per 20 grams of mouse body weight): generally produces death
- lethality test outcome (albino mice (strain CD1)): Toxic
- lethality test outcome (albino mice (strain CD1); ip): Toxic
- lethality test outcome (albino mice (strain CD1); sc): Toxic
- effect on GABA (neurotransmitter) release (mouse brain synaptosomes): increases neurotransmitter release

Substance: TIINVKCTS [NTX 1-9, Threonine-Isoleucine-Isoleucine-Asparagine-Valine-Lysine-Cysteine-Threonine-Serine]
- time to death (albino mice (strain CD1); dose 100 g (so in the source), intraventricularly): ≤ 20 h
- time to convulsions (albino mice (strain CD1); [2]): ≤ 12 min
- time to death (albino mice (strain CD1); [2]): < 0.333 h

Substance: Threonine-Isoleucine-Isoleucine-Asparagine-Valine-Lysine-Cysteine-Threonine-Serine-Proline-Lysine-Glutamine-Cysteine-Serine-Lysine-Proline-Cysteine-Lysine-Glutamic Acid-Leucine [NTX 1-20]
- effect on GABA (neurotransmitter) release (mouse brain synaptosomes): increases neurotransmitter release

Substance: Threonine-Isoleucine-Isoleucine-Asparagine-Valine-Lysine-Cysteine-Threonine-Serine-Proline-Lysine-Glutamine-Cysteine-Serine-Lysine-Proline-Cysteine-Lysine-Glutamic Acid-Leucine-Tyrosine-Glycine-Serine-Serine-Alanine-Glycine-Alanine-Lysine-Cysteine-Methionine-Asparagine-Glycine-Lysine-Cysteine-Lysine-Cysteine-Tyrosine-Asparagine-Asparagine [NTX 1-39]
- survival of immunized population [1]: more than 75%
- blockade of potassium permeability / potassium channels (mouse brain synaptosomes; excitable membranes such as brain synaptosomes): blocks potassium permeability
- immunogenicity (BALB/c mice): immunogenic

Substance: Tyrosine-Glycine-Serine-Serine-Alanine-Glycine-Alanine-Lysine-Cysteine-Methionine-Asparagine-Glycine-Lysine-Cysteine-Lysine-Cysteine-Tyrosine-Asparagine-Asparagine [NTX 21-39]
- immunogenicity (BALB/c mice): immunogenic

From patent US4929718A, “Synthetic noxiustoxin related peptides” (Universidad Nacional Autonoma De Mexico, priority 1987, dated 1990)
